Values quoted from earlier work in patent publication US20190300958A1, “GENETIC POLYMORPHISMS ASSOCIATED WITH VENOUS THROMBOSIS AND STATIN RESPONSE, METHODS OF DETECTION AND USES THEREOF” (Celera Corporation, priority 2010, published 2019).

Legend:
myocyte cultures = conditions: animal models and myocyte cultures, compared to lipophilic statins
[1] = test system: major cardiovascular events; conditions: study of 17,802 individuals

| myopathic potential (myocyte cultures) | SMILES | incidence of major cardiovascular events [1] |
| --- | --- | --- |
| low myopathic potential | CC[C@H](C)C(=O)O[C@H]1C[C@H](O)C=C2C=C[C@H](C)[C@H](CC[C@@H](O)C[C@@H](O)CC(=O)O)[C@H]21 [Pravastatin, pravastatin] | – |
| – | CC(C)c1nc(N(C)S(C)(=O)=O)nc(-c2ccc(F)cc2)c1/C=C/[C@@H](O)C[C@@H](O)CC(=O)O [rosuvastatin] | significantly reduced |
